Laboratory results as given in paper PMC6348446 (Journal of Medicinal Chemistry, 2018).

What was measured:
[1] = biological target: T1, BRD9 bromodomain (BRD9-BD) (Homo sapiens, UniProt Q9H8M2); test: ITC, BRD9-BD titrated into PROTAC (binary); assay type: binding; conditions: 25 °C
T1 construct: the bromodomain (residues 134–239) for BRD9 (Q9H8M2); His6 (cleaved yes); made in house; host or cells: Escherichia coli BL21(DE3)
T1 sequence (Q9H8M2 134-239): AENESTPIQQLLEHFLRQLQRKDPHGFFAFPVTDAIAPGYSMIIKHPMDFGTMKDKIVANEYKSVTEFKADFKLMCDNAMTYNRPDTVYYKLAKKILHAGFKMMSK

[2] = biological target: T2, VCB in the presence of BRD9-BD (Homo sapiens, UniProt P40337+Q9H8M2); test: Fluorescence polarization, displacement of FAM-labeled HIF-1α peptide in the presence of BRD9-BD (ternary); assay type: binding; conditions: binary versus ternary
T2 construct: the bromodomain (residues 134–239) for BRD9 (Q9H8M2); His6 (cleaved yes); made in house; host or cells: Escherichia coli BL21(DE3)
T2 sequence (P40337 54-213 limits assumed, one chain of several): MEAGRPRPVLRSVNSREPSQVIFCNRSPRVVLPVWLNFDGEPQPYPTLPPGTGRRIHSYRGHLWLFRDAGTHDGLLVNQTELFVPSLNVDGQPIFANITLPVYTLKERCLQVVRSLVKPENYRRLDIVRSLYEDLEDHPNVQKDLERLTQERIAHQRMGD
T2 sequence (Q15369 17-112 partner limits assumed, one chain of several): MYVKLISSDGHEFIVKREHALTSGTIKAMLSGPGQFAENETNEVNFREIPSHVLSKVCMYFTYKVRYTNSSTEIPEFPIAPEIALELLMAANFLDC
T2 sequence (Q15370 1-104 partner limits assumed, one chain of several): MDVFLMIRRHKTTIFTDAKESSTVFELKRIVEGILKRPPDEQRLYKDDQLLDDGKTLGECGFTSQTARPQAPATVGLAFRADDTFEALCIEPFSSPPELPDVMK

[3] = CHI LogD determination (reverse-phase HPLC); assay type: physicochemical; conditions: reversed-phase HPLC (ACE Excel 3 SuperC18 column), pH 7.4; read-out: CHI LogD (pH7.4)
Protocol: (§1) removed from both acceptor and donor compartments and mixed with acetonitrile (80 µL) containing an internal standard. The samples were centrifuged (10 min, 5 °C, 3270 g) to sediment precipitated protein and sealed prior to UPLC-MS/MS analysis using a Xevo TQ-S Micro (Waters Corp, USA). Pe was calculated as shown in the below equation: […]
(§2) CA(t) = peak area of compound present in acceptor well at time t = 18000 s Cequi = [CD(t) x VD + CA(t) x VA] / (VD + VA)
(§3) VA = acceptor well volume
(§4) CD(t) = peak area of compound present in donor well at time t = 18000 s Recovery of compound from donor and acceptor wells was calculated and data was only accepted when recovery exceeded 70%.
Using a fast gradient, reverse-phase HPLC method to determine the chromatographic hydrophobicity index (CHI) was determined as described by Camurri and Zaramella (ref. 3) and Valko et al. (ref. 4). Briefly, by plotting the retention time of a set of reference […]
compounds against known CHI values. The CHI value of test compounds was then calculated according to their retention time.
Test compounds were prepared as 0.25 mM solutions in 50:50 acetonitrile:water and analysed by reversed-phase HPLC-UV (wavelength 254 nm) using a ACE Excel 3 SuperC18, 3 µm, 50 x 2.1 mm column with a gradient of aqueous phase (10 mM ammonium acetate, pH 7.4) and mobile phase (acetonitrile).
Intrinsic clearance (Cli) experiments
Test compound (0.5 µM) was incubated with female CD1 mouse or human (mixed gender) liver microsomes (Xenotech LLCTM; 0.5 mg/mL 50mM potassium phosphate buffer, pH7.4) and the reaction initiated with addition of excess NADPH (8 mg/mL 50 mM potassium phosphate buffer, pH7.4). Immediately, at time zero, then at 3, 6, 9, 15 and 30 minutes an aliquot (50 µL) of the incubation mixture was removed and mixed with acetonitrile (100 µL) to stop the reaction. Internal standard was added to all samples, the samples centrifuged to sediment precipitated protein and the plates then sealed prior to […] analysis using […]
a Xevo TQ-S Micro (Waters corporation, USA).
XLfit (IDBS, UK) was used to calculate the exponential decay and consequently the rate constant (k) from the ratio of peak area of test compound to internal standard at each timepoint. The rate of intrinsic clearance (CLi) of each test compound was then calculated using the following calculation:
CLi(mL/min/g liver) = k x V x Microsomal protein yield
Where V (mL/mg protein) is the incubation volume/mg protein added and microsomal protein yield is taken as 52.5 mg protein/ g liver. Verapamil (0.5 µM) was used as a positive control to confirm acceptable assay performance.

[4] = Parallel Artificial Membrane Permeability Assay (PAMPA); assay type: in vitro ADME; conditions: for recovery at 5 h, 10 µM / PAMPA pH 7.4 HIGH/MED/LOW: pH 7.4; for PAMPA pH 7.4 HIGH/MED/LOW: permeability class
Protocol: Test compound (10 µM) was incubated in pre-warmed plasma at 37 ᵒC (that is buffered to pH 7.4 in ratio of 70:30 plasma to buffer). Immediately, at time zero, then at 30, 60, 120, and 180 min, a 50 µL aliquot of the incubation mixture was removed and mixed with 200 µL acetonitrile containing Donepezil as the internal standard (50 ng/ml) to stop the reaction. The samples were centrifuged to sediment the precipitated protein and the plates then sealed prior to UPLC-MS/MS analysis using a Xevo TQ-S Micro (Waters Corporation, USA).
XLfit (IDBS, UK) was used to calculate the exponential decay and consequently the rate constant (k) from the ratio of peak area of test compound to internal standard at each time point. The half-life was calculated for each test compound from the rate by using the […]
Parallel Artificial Membrane Permeability Assay (PAMPA)
PAMPA was performed using a 96-well pre-coated BD Gentest™ PAMPA plate (BD Biosciences, U.K.). Each well was divided into two chambers; donor and acceptor, separated by a lipid-oil-lipid tri-layer constructed in a porous filter. The effective permeability, Pe, of the compound was measured at pH 7.4. Stock solutions (5 mM) of the compound were prepared in DMSO. The compound was then further diluted to 10 µM in phosphate buffered […]
saline at pH 7.4. […] The compound […]
dissolved in phosphate buffered saline was then added to the donor side of the membrane and phosphate buffered saline without compound was added to the acceptor side. The PAMPA plate was left at room temperature for 5 h. After which time, an aliquot (100 µL) was then […]
as §1, §2, §3, §4
Using a fast gradient, reverse-phase HPLC method to determine the chromatographic hydrophobicity index (CHI) was determined as described by Camurri and Zaramella (ref. 3) and Valko et al. (ref. 4). Briefly, by plotting the retention time of a set of reference

N (stoichiometry), BRD9-BD into PROTAC [1] | ΔG, BRD9-BD into PROTAC [1] | ΔH, BRD9-BD into PROTAC [1] | –TΔS, BRD9-BD into PROTAC [1] | cooperativity α (FP) [2] | chromatographic logD [3] | recovery at 5 h, 10 µM ([4]; PAMPA) | PAMPA pH 7.4 Pe ([4]; pH 7.4, 5 h) | PAMPA pH 7.4 HIGH/MED/LOW [4] | PAMPA pH 7.4 HIGH/MED/LOW ([4]; listed as VZ185) | Papp at 5 h, 10 µM ([4]; PAMPA, pH 7.4, 5 h, read-out: PAMPA pH 7.4 Pe) | Structure (SMILES)
1.00 | –11.0 ± 0.1 kcal/mol | –11.4 ± 0.1 kcal/mol | 0.44 ± 0.05 kcal/mol | 1.17 | 2 | 94% | 0.01 nm/s | LOW and low cell permeability |  |  | COc1cc(-c2cn(C)c(=O)c3cnccc23)cc(OC)c1CN1CCN(CCOCCOCCOc2cc(-c3scnc3C)ccc2CNC(=O)[C@@H]2C[C@@H](O)CN2C(=O)[C@@H](NC(=O)C2(F)CC2)C(C)(C)C)CC1 [Compound 26, (2S,4R)-N-(2-(2-(2-(2-(4-(2,6-Dimethoxy-4-(2-methyl-1-oxo-1,2-dihydro-2,7-naphthyridin-4-yl)benzyl)piperazin-1-yl)ethoxy)ethoxy)ethoxy)-4-(4-methylthiazol-5-yl)benzyl)-1-((S)-2-(1-fluorocyclopropane-1-carboxamido)-3,3-dimethylbutanoyl)-4-hydroxypyrrolidine-2-carboxamide]
0.753 ± 0.004 | –10.7 ± 0.1 kcal/mol |  |  | 0.24 |  |  |  |  |  |  | COc1cc(-c2cn(C)c(=O)c3cnccc23)cc(OC)c1CN1CCN(CCOCCOCC(=O)N[C@H](C(=O)N2C[C@H](O)C[C@H]2C(=O)NCc2ccc(-c3scnc3C)cc2)C(C)(C)C)CC1 [Compound 5, (2S,4R)-1-((S)-2-(2-(2-(2-(4-(2,6-Dimethoxy-4-(2-methyl-1-oxo-1,2-dihydro-2,7-naphthyridin-4-yl)benzyl)piperazin-1-yl)ethoxy)ethoxy)acetamido)-3,3-dimethylbutanoyl)-4-hydroxy-N-(4-(4-methylthiazol-5-yl)benzyl)pyrrolidine-2-carboxamide]
0.77 | –11.35 ± 0.05 kcal/mol | –12.8 ± 0.1 kcal/mol |  | 1.00 | 2.3 |  | 0.01 nm/s |  | LOW and low cell permeability |  | COc1cc(-c2cn(C)c(=O)c3cnccc23)cc(OC)c1CN1CCN(CCCCCOc2cc(-c3scnc3C)ccc2CNC(=O)[C@@H]2C[C@@H](O)CN2C(=O)[C@@H](NC(=O)C2(F)CC2)C(C)(C)C)CC1 [Compound 51, (2S,4R)-N-(2-((5-(4-(2,6-Dimethoxy-4-(2-methyl-1-oxo-1,2-dihydro-2,7-naphthyridin-4-yl)benzyl)piperazin-1-yl)pentyl)oxy)-4-(4-methylthiazol-5-yl)benzyl)-1-((S)-2-(1-fluorocyclopropane-1-carboxamido)-3,3-dimethylbutanoyl)-4-hydroxypyrrolidine-2-carboxamide]
 |  |  |  |  | 2.4 | 87% |  | LOW |  | 0.036 ×10⁻⁶ cm/s | COc1cc(-c2cn(C)c(=O)c3cnccc23)cc(OC)c1CN1CCN(CCCCCOc2cc(-c3scnc3C)ccc2CNC(=O)[C@@H]2C[C@H](O)CN2C(=O)[C@@H](NC(=O)C2(F)CC2)C(C)(C)C)CC1 [cisVZ185]
